These are literature values, as cited in patent publication US20220016054A1, “EPINEPHRINE PARENTERAL FORMULATIONS” (Somerset Therapeutics LLC, priority 2020, published 2022).

The test system of data set [1] is beta-adrenergic receptors.
The conditions of data set [2]: fraction of that of l-epinephrine.

`CNCC(=O)c1ccc(O)c(O)c1` [adrenalone]: in data set [1], the beta-adrenergic activity entry is “little if any beta-adrenergic activity”.

For `CNC[C@H](O)c1ccc(O)c(O)c1` [d-epinephrine], the “pressor effect relative to l-epinephrine” value in data set [2] is recorded as “about one-fifteenth”.
